Reference: US7727980B2, “Tricyclic androgen receptor modulator compounds and methods” (priority 2001, dated 2010)
Like-named read-outs stand apart in the source and are kept apart here.

Assays:
human AR [1] = molecular target: T1, human AR (Homo sapiens, UniProt P10275); experiment: Co-transfection assay, AR agonist activity, CV-1 cells; format: cell-based; design: expressed in transfected cells; host or cells: CV-1 cells (African green monkey kidney fibroblasts), transient transfection with pRShAR; conditions: for AR Agonist CV-1 Cells Efficacy (%): percent maximal response relative to reference agonist DHT
T1 sequence (P10275 1-920): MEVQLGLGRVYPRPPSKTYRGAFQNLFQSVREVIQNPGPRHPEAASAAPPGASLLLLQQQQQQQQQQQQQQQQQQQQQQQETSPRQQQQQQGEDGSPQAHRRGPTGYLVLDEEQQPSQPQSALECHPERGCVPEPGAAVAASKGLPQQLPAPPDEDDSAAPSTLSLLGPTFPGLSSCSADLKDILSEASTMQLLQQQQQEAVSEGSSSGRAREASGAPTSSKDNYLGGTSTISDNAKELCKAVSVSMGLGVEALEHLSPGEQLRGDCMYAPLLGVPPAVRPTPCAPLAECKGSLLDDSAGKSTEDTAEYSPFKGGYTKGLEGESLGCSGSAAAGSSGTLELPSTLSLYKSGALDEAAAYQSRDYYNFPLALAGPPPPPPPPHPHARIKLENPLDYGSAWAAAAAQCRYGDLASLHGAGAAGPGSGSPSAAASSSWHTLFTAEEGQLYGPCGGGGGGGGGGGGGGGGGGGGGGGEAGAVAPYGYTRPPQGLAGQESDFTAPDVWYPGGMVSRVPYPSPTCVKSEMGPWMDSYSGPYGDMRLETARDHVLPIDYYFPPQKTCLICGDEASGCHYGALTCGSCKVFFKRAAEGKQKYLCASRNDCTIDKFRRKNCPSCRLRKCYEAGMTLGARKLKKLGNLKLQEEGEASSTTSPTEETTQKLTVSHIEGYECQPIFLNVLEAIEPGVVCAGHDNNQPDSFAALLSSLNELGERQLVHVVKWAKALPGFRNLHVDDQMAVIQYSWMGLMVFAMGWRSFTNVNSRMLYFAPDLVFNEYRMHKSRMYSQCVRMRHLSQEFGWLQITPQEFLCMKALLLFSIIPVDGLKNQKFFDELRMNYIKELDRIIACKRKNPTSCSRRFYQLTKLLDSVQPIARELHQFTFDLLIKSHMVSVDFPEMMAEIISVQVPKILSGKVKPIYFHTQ
From the text: (§1) The co-transfection assay provides a method for identifying functional agonists and partial agonists which mimic, or antagonists which inhibit, the effect of native hormones and quantifying their activity for responsive IR proteins. In this regard, the co-transfection assay mimics an in vivo system in the laboratory. Importantly, activity in the co-transfection assay correlates very well with known in vivo activity, such that the co-transfection assay functions as a qualitative and quantitative predictor of a tested compounds in vivo pharmacology. See, e.g., T. Berger et al. 41 J. Steroid Biochem. Molec.
(§2) In the co-transfection assay, a cloned cDNA for an IR (e.g., human PR, AR or GR) under the control of a constitutive promoter (e.g., the SV 40 promoter) is introduced by transfection (a procedure to induce cells to take up foreign genes) into a background cell substantially devoid of endogenous IRs. This introduced gene directs the recipient cells to make the IR protein of interest. A second gene is also introduced (co-transfected) into the same cells in conjunction with the IR gene. This second gene, comprising the cDNA for a reporter protein, such as firefly luciferase (LUC), controlled by an appropriate hormone responsive promoter containing a hormone response element (HRE). This reporter plasmid functions as a reporter for the transcription-modulating activity of the target IR. Thus, the reporter acts as a surrogate for the products (mRNA then protein) normally expressed by a gene under control of the target receptor and its native hormone.
(§3) The co-transfection assay can detect small molecule agonists or antagonists of target IRs. Exposing the transfected cells to an agonist ligand compound increases reporter activity in the transfected cells. This activity can be conveniently measured, e.g., by increasing luciferase production, which reflects compound-dependent, IR-mediated increases in reporter transcription. […] To detect antagonists, the co-transfection assay is carried out in the presence of a constant concentration of an agonist to the target IR (e.g., progesterone for PR) known to induce a defined reporter signal. Increasing concentrations of a suspected antagonist will decrease the reporter signal (e.g., luciferase production). The co-transfection assay is therefore useful to detect both agonists and antagonists of specific IRs. Furthermore, it determines not only whether a compound interacts with a particular IR, but whether this interaction mimics (agonizes) or blocks (antagonizes) the effects of the native regulatory molecules on target gene expression, as well as the specificity and strength of this interaction.
(§4) CV-1 cells (African green monkey kidney fibroblasts) were cultured in the presence of Dulbecco's Modified Eagle Medium (DMEM) supplemented with 10% charcoal resin-stripped fetal bovine serum then transferred to 96-well microtiter plates one day prior to transfection.
(§5) The reporter plasmid, MTV-LUC, contains the cDNA for firefly luciferase (LUC) under control of the mouse mammary tumor virus (MTV) long terminal repeat, a conditional promoter containing an androgen response element. See e.g., Berger et al. supra. In addition, pRS-β-Gal, coding for constitutive expression of E. coli β-galactosidase (β-Gal), was included as an internal control for evaluation of transfection efficiency and compound toxicity.
(§6) Six hours after transfection, media was removed and the cells were washed with phosphate-buffered saline (PBS). […] Three to four replicates were used for each sample. Transfections and subsequent procedures were performed on a Biomek 1000 automated laboratory work station.
(§7) After 40 hours, the cells were washed with PBS, lysed with a Triton X-100-based buffer and assayed for LUC and β-Gal activities using a luminometer or spectrophotometer, respectively. For each replicate, the normalized response (NR) was calculated as: LUC response/β-Gal rate • where β-Gal rate=β-Gal·1×10^−5/β-Gal incubation time.

human AR [2] = molecular target: T1, human AR; experiment: AR whole cell competitive binding assay (3H-DHT), transfected COS-1 cells; design: expressed in transfected cells; transient transfection with pRShAR; conditions: COS-1 cells, 1 nM 3H-DHT, Cheng-Prusoff from IC50
Description: AR Binding: For the whole cell binding assay, COS-1 cells in 96-well microtiter plates containing DMEM-10% FBS were transfected as described above with the following plasmid DNA: pRShAR (2 ng/well), pRS-β-Gal (50 ng/well) and pGEM (48 ng/well). Six hours after transfection, media was removed, the cells were washed with PBS and fresh media was added. The next day, the media was changed to DMEM-serum free to remove any endogenous ligand that might be complexed with the receptor in the cells.
Three replicates were used for each sample. […] The remaining media was removed, the cells were washed three times with PBS to remove unbound ligand and cells were lysed with a Triton X-100-based buffer.
For the saturation analyses, the difference between the total binding and the nonspecific binding, normalized by the β-Gal rate, was defined as specific binding. […] The Ki values were determined by application of the Cheng-Prusoff equation to the IC50 values, where: […]
After correcting for non-specific binding, IC50 values were determined. […] The IC50 value was determined graphically from a log-logit plot of the data. The Ki values were determined by application of the Cheng-Prusoff equation to the IC50 values, the labeled ligand concentration and the Kd of the labeled ligand.

human AR [3] = molecular target: T1, human AR; experiment: Co-transfection assay, AR antagonist activity in presence of DHT, CV-1 cells; format: cell-based; design: expressed in transfected cells; host or cells: CV-1 cells (African green monkey kidney fibroblasts), transient transfection with pRShAR; conditions: for AR Antagonist CV-1 Cells Efficacy (%): percent maximal inhibition, DHT at its EC50 concentration
From the text: as §1, §2, §3, §4, §5, §6, §7

[4] = AR Agonist CV-1 Cells Potency (nM), agonist potency or EC50
[5] = AR Antagonist CV-1 Cells Potency (nM), CV-1 cells, antagonist potency or IC50, DHT at its EC50 concentration
[6] = agonist potency or EC50, read-out: AR Agonist CV-1 Cells Potency
[7] = CV-1 cells, antagonist potency or IC50, DHT at its EC50 concentration, read-out: AR Antagonist CV-1 Cells Potency

| Molecule | EC50 (human AR [1]; [4]) | AR Agonist CV-1 Cells Efficacy (%) (human AR [1]) | Ki (human AR [2]; AR Binding Ki (nM)) | IC50 (human AR [3]; [5]) | AR Antagonist CV-1 Cells Efficacy (%) (human AR [3]; CV-1 cells) | EC50 (human AR [1]; [6]) | Ki (human AR [2]; read-out: AR Binding Ki) | IC50 (human AR [3]; [7]) | IC50 (human AR [3]) |
| --- | --- | --- | --- | --- | --- | --- | --- | --- | --- |
| CC1=CC(C)(C)Oc2cc3oc(=O)cc(C(F)(F)F)c3cc21 [Compound 223, 6,8,8-Trimethyl-4-trifluoromethyl-8H-pyrano[3,2-g]coumarin] | > 10000 nM | na (na = not active (i.e. efficacy of <20 and potency of >10,000)) | 37 nM | 41 nM | 66% |  |  |  |  |
| 6-Methyl-7-(2,2,2-trifluoroethyl)-4-trifluoromethyl-7H-pyrrolo[3,2-f]quinolin-2(1H)-one [Compound 152] |  | 74% |  |  | na (na = not active (i.e. efficacy of <20 and potency of >10,000)) | 4.9 nM | 67 nM | > 10000 nM |  |
| 6,7-Dihydro-8,8-dimethyl-4-(trifluoromethyl)-8H-pyrano[3,2-g]quinolin-2(1H)-one [Compound 202] |  | na (na = not active (i.e. efficacy of <20 and potency of >10,000)) |  |  | 92% | > 10000 nM |  | 146 nM |  |
| O=c1cc(C(F)(F)F)c2c(ccc3c2c2ccccc2n3CC(F)(F)F)[nH]1 [Compound 158, 9-(2,2,2-Trifluoroethyl)-4-trifluoromethyl-9H-benzo[g]pyrrolo[3,2f]quinolin-2(1H)-one] | 7.9 nM | 59% | 7.1 nM | > 10000 nM | na (na = not active (i.e. efficacy of <20 and potency of >10,000)) |  |  |  |  |
| CCC1=CC(C)(C)Oc2cc3oc(=O)cc(C(F)(F)F)c3cc21 [Compound 227, 6-Ethyl-8,8-dimethyl-4-trifluoromethyl-8H-pyrano[3,2-g]coumarin] | > 10000 nM | na (na = not active (i.e. efficacy of <20 and potency of >10,000)) | 33 nM | 25 nM | 75% |  |  |  |  |
| CC(C)C1c2c(ccc3[nH]c(=O)cc(C(F)(F)F)c23)N(CC(F)(F)F)C1C (racemic) [Compound 144, (±)-5,6-cis-Dihydro-5-isopropyl-6-methyl-7-(2,2,2-trifluoroethyl)-4-trifluoromethyl-7H-pyrrolo[3,2-f]quinolin-2(1H)-one] | > 10000 nM | na (na = not active (i.e. efficacy of <20 and potency of >10,000)) |  | 23 nM | 53% |  |  |  |  |
| CC1CC(C)(C)N(CC(F)(F)F)c2ccc3[nH]c(=O)ccc3c21 (stereo not drawn) [Compound 182, 8-(2,2,2-Trifluoroethyl)-5,6,7,8-tetrahydro-5,7,7-trimethylpyrido[3,2-f]quinolin-2(1H)-one] |  | na (na = not active (i.e. efficacy of <20 and potency of >10,000)) |  |  | 81% |  |  |  | 13 nM |
| CCC1CCOc2cc3c(cc21)c(C(F)(F)F)cc(=O)n3C (racemic) [Compound 220, (±)-6,7-Dihydro-6-ethyl-4-trifluoromethyl-1-methyl-8H-pyrano[3,2-g]quinolin-2(1H)-one] | > 10000 nM | na (na = not active (i.e. efficacy of <20 and potency of >10,000)) |  | 23 nM | 67% |  |  |  |  |
| 6-Ethyl-5-methyl-7-(2,2,2-trifluoroethyl)-4-trifluoromethyl-7H-pyrrolo[3,2-f]quinolin-2(1H)-one [Compound 153] |  | 76% |  |  | na (na = not active (i.e. efficacy of <20 and potency of >10,000)) | 7.6 nM |  | > 10000 nM |  |
| 6,7-Dihydro-8,8,10-trimethyl-4-(trifluoromethyl)-8H-pyrano[3,2-g]quinolin-2(1H)-one [Compound 206] |  | na (na = not active (i.e. efficacy of <20 and potency of >10,000)) |  |  | 90% | > 10000 nM |  | 175 nM |  |
| (−)-6,7-Dihydro-6-ethyl-4-trifluoromethyl-8H-pyrano[3,2-g]quinolin-2(1H)-one [Compound 217] |  | na (na = not active (i.e. efficacy of <20 and potency of >10,000)) |  |  | 85% | > 10000 nM |  | 64 nM |  |
| CCc1c(C)c2cc3[nH]c(=O)cc(C(F)(F)F)c3cc2n1CC(F)(F)F [Compound 163, 7-Ethyl-8-methyl-6-(2,2,2-trifluoroethyl)-4-trifluoromethyl-6H-pyrrolo[2,3-g]quinolin-2(1H)-one] | > 10000 nM | na (na = not active (i.e. efficacy of <20 and potency of >10,000)) |  | 8.2 nM | 37% |  |  |  |  |
